# In US12268739B2, “Use of toll-like receptor 2 (TLR-2) agonist for modulating human immune response” (Children's Medical Center Corporation, priority 2018, dated 2025):
# Assays:
# [1] = test system: NF-κB reporter THP1 cells; test: NF-kB-induced luminescence HTS in THP1-Lucia cells (384-well); type: cell-based, human; conditions: ranked at 3.3 μM; ~200,000 compounds tested
# From the text: HTS Overview: To identify immunomodulators/adjuvants that robustly activate human immune cells, ˜200,000 small molecules were screening in a THP1 cell-based assay. The chemical libraries screened included known bioactive and commercial libraries from various sources including commercial libraries such as ChemDiv, ChemBridge, and Asinex. All libraries were owned and provided by the Institute of Chemistry and Cell Biology (ICCB)—Longwood (Harvard Medical School). The project primary screen incorporated two distinct arms: a) a luciferase-based screen which corresponds to the relative activation of the NF-κB reporter; and b) a fluorescence-based screen, corresponding to the phenotypic adherence, a distinct marker of cell activation, of the human monocytic THP-1 cell lines. Described herein are small molecules identified in the screen that induce NF-kB activity based on a luciferase-based THP-1 cell screen.
# (§1) THP-1 Cell Line and Culture Conditions. The THP1-Lucia™ cell line was obtained from Invivogen (San Diego, CA). THP1-Lucia cells, which are human monocytic cells derived from the blood of a child with leukemia, contain an NF-kB-inducible Luc reporter construct. This allows NF-kB activation to be measured by quantifying the luminescence from the secreted luciferase enzyme. THP1-Lucia cells were cultured in RPMI 1640 supplemented with 10% non-heat inactivated fetal bovine serum (FBS), 10 mM HEPES, 1.0 mM sodium pyruvate, 50 ug/ml Pen-Strep, and 100 ug/mL Normocin™. Once cultured, the cells were stored in a 37° C. incubator with 5% CO2 and a humidified atmosphere. Cells were passaged every 2-3 days and not allowed to exceed a concentration of 2.0×10^6 cells/ml media.
# NF-kB-induced Luminescence Assay. THP1-Lucia cells between passage 15 and 18 and suspended in culture medium were dispensed into 384-well black clear-bottom plates (Corning 3712) at 30,000 cells/30 μl/well using a Combi liquid dispenser. To allow comparison to a benchmark small molecule with known immune stimulating activity, cells at the same concentration were stimulated with 50 μM R848, a TLR7/8 agonist, in 0.3% DMSO and added to every other well of column 24, which was left empty of cells, by multichannel pipette at the same volume. Five μl of 700 nM Phorbol myristate acetate (PMA) in THP1 culture media and 2.3% DMSO, a known peripheral blood cell mitogen, was added to every other well of column 23 by multichannel pipette (final concentration in well: 100 nM in 0.3% DMSO). Five μl of THP1 culture media with 2.3% DMSO was added to the remaining wells of column 23 by multichannel pipette (final concentration 0.3% DMSO). One hundred nl aliquots of library compounds diluted in 100% DMSO were transferred from their original 384-well plates to the assay plates using a Seiko pin transfer machine. Each library plate was pinned in duplicate, yielding two assay plates with identical conditions for comparison. Plates were then incubated for 24 hours at 37 C with 5% CO2 in humid conditions. Following incubation, 10 μL of supernatant was removed from each well and transferred to a white plate (Corning 3570) using a Vprep liquid transfer machine. 10 μL of recombinant Lucia protein (Invivogen) diluted 1:2000 in THP1 culture media was added to empty well 24P. Using a Combi liquid dispenser, 50 μL/well of Quanti-Luc substrate (Invivogen) diluted 1:3 in sterile water was added to the assay plate. Immediately after adding the substrate, the luminescence was read using a PerkinElmer Envision plate reader.
# human adult PBMCs = test: Cytokine production by stimulated human adult PBMCs (ELISA / multiplex); type: cell-based; conditions: human adult PBMCs, 24 hours, compounds at 100 µM (FIG. 7), ELISA, median
# Procedure: ELISAs and Multiplex-Analyte Assays. Supernatants derived from human PBMCs stimulations were assayed by ELISA for TNF and IL-6 (ThermoFisher Scientific; Waltham, MA, USA). Cytokine and chemokine expression profiles (e.g., IFNγ, IL-9, IL-10, IL-12 (p70), IL-13, IL-1β, IL-23, IL-27, IL-28A, IL-33, IL-6, MIP-3α/CCL20, and TNF) in cell culture supernatants were measured using a customized Milliplex® Human Th17 Magnetic Bead Panel according to the manufacturer's instructions (Millipore, Chicago, IL, USA). Assays were read and analyzed on the Luminex® 100/200TM System and xPOTENT® software (Luminex, Austin, TX). A minimum threshold was set at the minimum detectable concentration for each individual assay, defined as three standard deviations above the mean background.
# PBMCs were isolated from blood using a Ficoll density gradient. PBMCs either used fresh or were stored at 5×10^7 cells per vial in 1 mL RPMI containing 20% autologous plasma and 10% DMSO at −80° C. until use. […] PBMCs isolated from human adult donors or THP1-NF-κB cells were resuspended at a concentration of 10^5 cells/200 μl of RPMI supplemented with 10% of platelet-poor plasma or THP1 culture medium, respectively. […] After 24 hours of incubation (37° C., 5% CO2), plates were spun down (500×g, room temperature, 5 minutes) and supernatants were harvested for further analysis.
# THP1-NF-κB cells = test: THP1-NF-κB cell stimulation for 24 hours, secreted luciferase luminescence; type: cell-based, human; conditions: NF-κB-dependent luminescence, 24 hours; for THP1 cells (relative luminescence units, N = 4) Comp at 25 uM: compound at 25 uM; for THP1 cells (relative luminescence units, N = 4) Comp at 100 uM: compound at 100 uM
# Procedure: as §1
# PBMCs were isolated from blood using a Ficoll density gradient. PBMCs either used fresh or were stored at 5×10^7 cells per vial in 1 mL RPMI containing 20% autologous plasma and 10% DMSO at −80° C. until use. Stimulation plates were prepared by transferring 0.66 μl of DMSO-dissolved compounds (30 or 7.5 mM) to each well of a round bottom 96-well plate. PBMCs isolated from human adult donors or THP1-NF-κB cells were resuspended at a concentration of 10^5 cells/200 μl of RPMI supplemented with 10% of platelet-poor plasma or THP1 culture medium, respectively. 200 μl of the cell suspension were transferred to each well resulting in a final compound concentration of 100 or 25 μM. After 24 hours of incubation (37° C., 5% CO2), plates were spun down (500×g, room temperature, 5 minutes) and supernatants were harvested for further analysis.
SMILES,Efficacy in activating NF-κB in THP1 cells (screening hits) [1],Adult PBMCs (median ng/ml) IL-6 (N = 7) (human adult PBMCs),Adult PBMCs (median ng/ml) TNFa (N = 13) (human adult PBMCs),"THP1 cells (relative luminescence units, N = 4) Comp at 25 uM (THP1-NF-κB cells)","THP1 cells (relative luminescence units, N = 4) Comp at 100 uM (THP1-NF-κB cells)"
COC(=O)c1c(NC(=O)CN2CCN(C(=O)c3ccco3)CC2)sc2c1CCC2 [Compound 003],most effective,–,–,–,–
CCOC(=O)c1c(NC(=O)CN2CCC3(CC2)OCCO3)sc(C)c1C [Compound 005],most effective,–,–,–,–
CNC(=O)c1c(NC(=O)c2ccc(Cl)cc2)sc2c1CCC2 [Compound 80.5],–,0.008 ng/mL,0.008 ng/mL,436.5 relative luminescence units,777 relative luminescence units
CCN(CC)S(=O)(=O)c1ccc(C(=O)Nc2sc3c(c2C(=O)NC)CCC3)cc1 [Compound 80.6],–,–,–,2505 relative luminescence units,2816 relative luminescence units
CNC(=O)c1c(NC(=O)c2ccc(OC)cc2)sc2c1CCC2 [Compound 80.8],–,0.008 ng/mL,0.008 ng/mL,258.5 relative luminescence units,2552 relative luminescence units
CNC(=O)c1c(NC(=O)c2ccc(C#N)cc2)sc2c1CCC2 [Compound 80.11],–,0.0225 ng/mL,0.008 ng/mL,1108 relative luminescence units,2420 relative luminescence units
CNC(=O)c1c(NC(=O)c2ccc(S(=O)(=O)N(C)C)cc2)sc2c1CCCCC2 [Compound 80.13],–,0.008 ng/mL,0.008 ng/mL,348 relative luminescence units,11361 relative luminescence units
CNC(=O)c1c(NC(=O)c2ccc(S(=O)(=O)N3CCCCC3)cc2)sc(C)c1C [Compound 80.14],–,0.008 ng/mL,0.008 ng/mL,517 relative luminescence units,1475 relative luminescence units
"CNc1ccc([N+](=O)[O-])cc1-n1cnc(-c2ccc([N+](=O)[O-])cc2)c1 [TM-A, reference compound]",–,2.154 ng/mL,0.092 ng/mL,8777 relative luminescence units,13092 relative luminescence units
"COC(=O)c1c(NC(=O)Nc2ccccc2)sc2c1CCCC2 [TM-B, reference compound]",–,0.057 ng/mL,0.008 ng/mL,1204 relative luminescence units,681 relative luminescence units
"CCOC(=O)c1c(NC(=S)Nc2ccc(OC)cc2)sc2c1CCCC2 [TM-C, reference compound]",–,0.5145 ng/mL,0.01575 ng/mL,3440 relative luminescence units,4031 relative luminescence units
"Cc1ccc(N(CC(=O)NCc2ccc(Cl)cc2)S(C)(=O)=O)cc1 [TM-E, reference compound]",–,0.008 ng/mL,0.008 ng/mL,320 relative luminescence units,428.5 relative luminescence units
"COc1ccc(CNC(=O)CN(c2ccc(Br)cc2)S(=O)(=O)c2ccccc2)cc1 [TM-F, reference compound]",–,0.008 ng/mL,0.008 ng/mL,348.5 relative luminescence units,2012 relative luminescence units
